According to US5439933A (priority 1993, dated 1995):
≈ marks a conversion by molar mass, not a printed value. Where two headings read alike, the source gives them in different places. Starred links: 1 amine or outer side, 2 acyl side, 3 side chain; linkers in the order of their positions; H or OH if unused. Positions of bridges follow the written chain, without caps; N, C: chain ends. Non-standard residues stand in square brackets, D forms with d. Residues, ends and D or L forms follow the SMILES beside them. Chains are numbered I, II in the order given. Actinocin(9to1) = Cc1c2oc3c(C)ccc(C(=O)[*:1])c3nc-2c(C(=O)[*:2])c(N)c1=O; NMeV = CN[C@H](C(=O)O)C(C)C; Sar = CNCC(=O)O

Assays:
[1] = system: Human ovarian carcinoma cells (SKOV3); assay: cells; assay type: cell-based; settings: SK-OV-3, Table 7, SKOV3, 48 hours, read-out: IC50 SKOV3
Procedure: Human ovarian carcinoma cells (SKOV3) and a subline made multi-drug resistant by slowly increasing vinblastine in the culture medium over the course of many passages (SKVLB) were grown in Earle's basal medium (BME) containing 10% fetal calf serum. The SKVLB cells were maintained in the presence of 1 µg/mL vinblastine. The multi-drug resistant cell line is resistant to adriamycin, vinblastine, actinomycin D, and colchicine.
Cell proliferation was estimated by measurement of protein content of the cultured cells, as described by Skehan et al. (1990). Cells were plated into 24-well plates at approximately 10% confluency in BME and were allowed to attach and recover for at least 24 hours. The cells were then treated with the scytophycins or appropriate control for 48 hours. After the incubation, the medium was removed from each well and cells fixed by addition of 10% (w/v) trichloroacetic acid (TCA) (4° C.). The cells were incubated at 4° C. for one hour and then washed five times with water to remove TCA. The TCA-fixed cells were then stained for 30 minutes with 0.4% (w/v) sulforhodamine B prepared in 1% acetic acid. Following the staining, the cell layers were washed four times with 1% acetic acid. The cell layer was dissolved in 10 mM unbuffered tris-hydroxymethylaminomethane base. Absorbance of the solution was determined at 564 nm. Antiproliferative activity is manifested as decreased production of cellular protein.

[2] = system: Saccharomyces cerevisae; assay: Antifungal agar dilution; assay type: cell-based; settings: Saccharomyces cerevisae; for IC50: Table 9
Procedure: (§1) The new scytophycins are also useful as antifungal agents. Antimicrobial activity was determined by the agar dilution method. Tolytoxin was dissolved in 95% ethanol for addition to cooled, molten agar. Nystatin was solubilized in DMSO and diluted in distilled water. Appropriate solvent controls were also prepared. Fungal cultures were grown on Saboraud dextrose agar. Assay plates were incubated for 48 hours post-inoculation. Yeasts and filamentous fungi were incubated at 25° C.
(§2) Activity was determined using the method described above for tolytoxin.

[3] = system: Sclerotium rofsii 2133; assay: Antifungal agar dilution; assay type: cell-based; settings: Sclerotium rofsii 2133
Procedure: as §1, §2

[4] = system: Candida albicans A26; assay: Antifungal agar dilution; assay type: cell-based
Procedure: as §1, §2

[5] = system: Phytophthora nicotianae H729; assay: Antifungal agar dilution; assay type: cell-based; settings: Phytophthora nicotianae H729
Procedure: as §1, §2

[6] = system: Thielaviopsis paradoxa 1215; assay: Antifungal agar dilution; assay type: cell-based; settings: Thielaviopsis paradoxa 1215; for IC50: Table 9
Procedure: as §1, §2

[7] = system: KB human epidermoid carcinoma cells; assay: Cell proliferation assay (cell counts), KB; assay type: cell-based; settings: Table 6, KB, read-out: IC50 KB
Procedure: (§3) Tolytoxin and the other new scytophycin compounds are potent anticancer and antifungal agents. The cytotoxicity of tolytoxin and other new scytophycin compounds was determined using a cell proliferation assay, which tested the effect of the compounds on increases in cell numbers.
(§4) Cell lines were grown in plastic dishes (Falcon) in Eagle's basal medium supplemented with 5% newborn calf serum (KB), Fisher's medium supplemented with 10% horse serum (L1210), Dulbecco's modified Eagle's medium supplemented with 5% heat-inactivated fetal calf serum (LoVo), minimal essential medium supplemented with 2% heat-inactivated chicken serum (HEp-2), RPMI-1640 supplemented with 10% heat-inactivated fetal calf serum (T-47D, COLO-201) or 20% heat-inactivated fetal calf serum (HL-60, KATO-III), or McCoy's 5A supplemented with 10% heat-inactivated fetal calf serum (HBL-100). All cell culture media were supplemented with 50 μg/ml gentamycin sulfate. The cultures were incubated at 37° C. in a humidified atmosphere containing 5% carbon dioxide.
(§5) Cultures were exposed to graded concentrations of tolytoxin and reincubated for 72 hours in the presence of tolytoxin. Three dishes were used for each treatment. Cell numbers were determined by hemacytometer counts. The IC50 for each cell line was determined by plotting the logarithm of the tolytoxin concentration versus growth (cell number as a percentage of the control) of the treated cells.
(§6) The other new scytophycin compounds are also potent cytotoxins. For example, the IC50 of the scytophycins against KB human epidermoid carcinoma, LoVo human adenocarcinoma, and L1210 murine leukemia were determined using the cell proliferation assay described for tolytoxin.

[8] = system: SKVLB (multi-drug resistant subline of SKOV3); assay: cells; assay type: cell-based, Human; settings: for IC50: Homo sapiens, 48 hours, read-out: IC50 SKVLB; for IC50 / Fold-Resistance: Table 7; for IC50 / resistance of the multi-drug resistant cell line: SKVLB; for Fold-Resistance: SKVLB vs SKOV3, 2880 min
[9] = system: LoVo human adenocarcinoma cells; assay: Cell proliferation assay (cell counts), LoVo; assay type: cell-based; settings: Table 6, read-out: IC50 LoVo
Procedure: as §3, §4, §5, §6

[10] = system: L1210 murine leukemia cells; assay: Cell proliferation assay (cell counts), L1210; assay type: cell-based; settings: Mus musculus; Table 6; L1210; read-out: IC50 L1210
Procedure: as §3, §4, §5, §6

[11] = system: actin microfilaments; settings: by binding to the end unit of growing actin microfilaments; cited from earlier work
[12] = system: cellular sugar uptake; settings: side effect; cited from earlier work
[13] = system: Calonectria critalarae 1809; assay: Antifungal agar dilution; assay type: cell-based; settings: Table 8; Calonectria critalarae 1809; 48 hours
Procedure: as §1

[14] = system: Rhizoctonia solani 1165; assay: Antifungal agar dilution; assay type: cell-based; settings: Table 8; Rhizoctonia solani 1165; 48 hours
Procedure: as §1

[15] = system: Trichophyton mentagrophytes A23; assay: Antifungal agar dilution; assay type: cell-based; settings: Table 8; Trichophyton mentagrophytes A23; 48 hours
Procedure: as §1

[16] = system: Bipolaris incurvata 2118; assay: Antifungal agar dilution; assay type: cell-based; settings: Table 8; Bipolaris incurvata 2118; 48 hours
Procedure: as §1

[17] = system: Aspergillus oryzae; assay: Antifungal agar dilution; assay type: cell-based; settings: Table 8, 48 hours
Procedure: as §1

[18] = system: Penicillium notatum; assay: Antifungal agar dilution; assay type: cell-based; settings: Table 8; Penicillium notatum; 48 hours
Procedure: as §1

[19] = system: Alternaria alternata 1715; assay: Antifungal agar dilution; assay type: cell-based; settings: Table 8; Alternaria alternata 1715; 48 hours
Procedure: as §1

[20] = system: Colletotrichum coccodes 1809; assay: Antifungal agar dilution; assay type: cell-based; settings: Table 8; Colletotrichum coccodes 1809; 48 hours
Procedure: as §1

[21] = system: Phyllosticta capitalensis 689-5; assay: Antifungal agar dilution; assay type: cell-based; settings: Table 8; Phyllosticta capitalensis 689-5; 48 hours
Procedure: as §1

[22] = Table 9, Candida albicans A26, read-out: IC50

| Compound | IC50 [1] [nM] | IC50 [2] [nM] | MIC ([3]; Table 9, read-out: IC50) [nM] | MIC [4, 22] [nM] | MIC ([5]; Table 9, read-out: IC50) [nM] | IC50 [6] [nM] | IC50 [7] [nM] | IC50 [8] [nM] | Fold-Resistance [8] | IC50 [9] [nM] | IC50 [10] [nM] | resistance of the multi-drug resistant cell line [8] | further results |
| --- | --- | --- | --- | --- | --- | --- | --- | --- | --- | --- | --- | --- | --- |
| COC1CC2C=CCC(CC(OC)C(CO)C(OC)CC(OC)C(C)C(C(C)C(O)C(C)CCC(=O)C(C)C(OC)C(C)/C=C/N(C)C=O)OC(=O)/C=C/C(C)=C/C1O)O2 (centres unmarked) [6-Hydroxy-7-O-methylscytophycin E, 6-hydroxy-7-O-methylscytophycin E] | 100 | 64 | 16 (≈ 13.6 ng/mL) | 64 (≈ 54.5 ng/mL) | 16 (≈ 13.6 ng/mL) | 32 | 12 | 300 | 3 | 8 | 6.6 |  |  |
| COC1CC(OC)C2(CO2)C(OC)CC2CC=CC(CC(O)C(O)/C=C(C)/C=C/C(=O)OC(C(C)C(O)C(C)CCC(=O)C(C)C(OC)C(C)/C=C/N(C)C=O)C1C)O2 (centres unmarked) [6-Hydroxyscytophycin B] | 50 | 100 | 16 (≈ 13.4 ng/mL) | 200 (≈ 167 ng/mL) | 64 (≈ 53.5 ng/mL) | 32 | 3.6 | 150 | 3 | 8.2 | 11 |  |  |
| COC1CC2CC=CC(CC(O)C/C=C(C)/C=C/C(=O)OC(C(C)C(O)C(C)CCC(=O)C(C)C(OC)C(C)/C=C/N(C)C=O)C(C)C(O)CC(OC)C1C)O2 (centres unmarked) [19-O-demethylscytophycin C] | 25 | 64 | 4 (≈ 3.17 ng/mL) | 128 (≈ 101 ng/mL) | 8 (≈ 6.34 ng/mL) | 16 | 9.2 | 25 | 1 | 2.9 | 12.5 |  |  |
| COc1cccc2c1C(=O)c1c(O)c3c(c(O)c1C2=O)C[C@@](O)(C(=O)CO)C[C@@H]3O[C@H]1C[C@H](N)[C@H](O)[C@H](C)O1 [Adriamycin] | 400 |  |  |  |  |  |  | > 100000 | > 250 |  |  | resistant |  |
| C=C1C(C)C2C(Cc3ccccc3)NC(=O)C23OC(=O)C=CC(O)CCCC(C)CC=CC3C1O (centres unmarked) [Cytochalasin B] | 5000 |  |  |  |  |  |  | 30000 | 6 |  |  |  | microfilament formation [11]: inhibit microfilament formation; cellular sugar uptake [12]: inhibits cellular sugar uptake |
| C[C@@H]1[C@H](O)[C@@H](C)/C=C/C=C/CC/C=C/C=C/C=C/C=C/C(O[C@H]2O[C@H](C)[C@@H](O)[C@H](N)[C@@H]2O)CC2O[C@](O)(CC(O)C(O)CCC(O)CC(O)CC(O)CC(=O)O[C@H]1C)CC(O)C2C(=O)O (some centres unmarked) [Nystatin, reference compound] |  |  |  |  |  |  |  |  |  |  |  |  | MIC ([2]; Table 8, 48 hours): 1 nM (≈ 0.926 ng/mL); MIC ([3]; Table 8, 48 hours): 0.125 nM (≈ 0.116 ng/mL); MIC ([4]; Table 8, Candids albicans A26, 48 hours): 1 nM (≈ 0.926 ng/mL); MIC ([5]; Table 8, 48 hours): 1 nM (≈ 0.926 ng/mL); MIC ([6]; Table 8, 48 hours): 0.5 nM (≈ 0.463 ng/mL); MIC [13]: 0.25 nM (≈ 0.232 ng/mL); MIC [14]: 0.0625 nM (≈ 0.0579 ng/mL); MIC [15]: 0.5 nM (≈ 0.463 ng/mL); MIC [16]: 0.25 nM (≈ 0.232 ng/mL); MIC [17]: 0.5 nM (≈ 0.463 ng/mL); MIC [18]: 0.125 nM (≈ 0.116 ng/mL); MIC [19]: 0.5 nM (≈ 0.463 ng/mL); MIC [20]: 0.25 nM (≈ 0.232 ng/mL); MIC [21]: 0.125 nM (≈ 0.116 ng/mL) |
| CC[C@]1(O)C[C@@H]2CN(CCc3c([nH]c4ccccc34)[C@@](C(=O)OC)(c3cc4c(cc3OC)N(C)[C@H]3[C@@](O)(C(=O)OC)[C@H](OC(C)=O)[C@]5(CC)C=CCN6CC[C@]43[C@@H]65)C2)C1 [Vinblastine] | 1 |  |  |  |  |  |  | 10000 | 10,000 |  |  | resistant |  |
| Cc1c2oc3c(C)ccc(C(=O)N[C@@H]4C(=O)N[C@H](C(C)C)C(=O)N5CCC[C@H]5C(=O)N(C)CC(=O)N(C)[C@@H](C(C)C)C(=O)O[C@@H]4C)c3nc-2c(C(=O)N[C@@H]2C(=O)N[C@H](C(C)C)C(=O)N3CCC[C@H]3C(=O)N(C)CC(=O)N(C)[C@@H](C(C)C)C(=O)O[C@@H]2C)c(N)c1=O [actinomycin D] (I: T[dV]P[Sar][NMeV] / II: T[dV]P[Sar][NMeV]; ester I:1-I:C, II:1-II:C; linker I:N-II:N via Actinocin(9to1)) |  |  |  |  |  |  |  |  |  |  |  | resistant |  |
| COc1cc2c(c(OC)c1OC)-c1ccc(OC)c(=O)cc1[C@@H](NC(C)=O)CC2 [colchicine] |  |  |  |  |  |  |  |  |  |  |  | resistant |  |
